Source: patent publication US20250302815A1, “PROTEIN TYROSINE PHOSPHATASE TARGETING LIGANDS” (CALICO LIFE SCIENCES LLC, priority 2021, published 2025)

How the values were obtained:
[1] = target: T1, PTPN2 (HiBIT-PTPN2 in 293T.109 cells) (Homo sapiens, UniProt P17706); assay: HiBiT Degradation 293T.109 PTPN2 (Nano-Glo HiBiT Lytic Assay); assay type: cell-based; conditions: 24.0 hours
T1 construct: expressed in transfected cells; host or cells: 293T.109 (293T WT from ATCC)
T1 sequence (P17706 1-415): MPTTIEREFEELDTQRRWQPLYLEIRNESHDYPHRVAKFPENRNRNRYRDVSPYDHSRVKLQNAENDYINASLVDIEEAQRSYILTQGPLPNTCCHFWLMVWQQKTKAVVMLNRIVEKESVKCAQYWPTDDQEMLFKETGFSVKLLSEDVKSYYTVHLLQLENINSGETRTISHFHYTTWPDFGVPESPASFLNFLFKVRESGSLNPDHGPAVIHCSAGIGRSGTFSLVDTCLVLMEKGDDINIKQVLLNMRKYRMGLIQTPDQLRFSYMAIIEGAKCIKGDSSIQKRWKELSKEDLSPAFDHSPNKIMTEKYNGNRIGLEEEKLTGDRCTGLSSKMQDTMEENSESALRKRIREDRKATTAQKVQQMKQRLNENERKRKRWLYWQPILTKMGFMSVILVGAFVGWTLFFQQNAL
Outline: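 293T.109 cells with ectopic N-terminal HiBiT-tagged PTPN2 (5000/well) exposed to compounds for 24 h at 37 °C, 5% CO2; 11-point half-log titration from 10 μM top, duplicates. Remaining HiBiT-PTPN2 read as luminescence with Nano-Glo HiBiT lytic reagent, normalised to untreated cells (0%) and reagent-free wells.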

[2] = target: T2, PTPN2 (B16F10.4 cells) (Mus musculus, UniProt Q06180); assay: HiBiT Degradation B16F10.4 PTPN2; assay type: cell-based; conditions: 24.0 hours
T2 construct: HiBiT; host or cells: B16F10.4
T2 sequence (Q06180 1-406): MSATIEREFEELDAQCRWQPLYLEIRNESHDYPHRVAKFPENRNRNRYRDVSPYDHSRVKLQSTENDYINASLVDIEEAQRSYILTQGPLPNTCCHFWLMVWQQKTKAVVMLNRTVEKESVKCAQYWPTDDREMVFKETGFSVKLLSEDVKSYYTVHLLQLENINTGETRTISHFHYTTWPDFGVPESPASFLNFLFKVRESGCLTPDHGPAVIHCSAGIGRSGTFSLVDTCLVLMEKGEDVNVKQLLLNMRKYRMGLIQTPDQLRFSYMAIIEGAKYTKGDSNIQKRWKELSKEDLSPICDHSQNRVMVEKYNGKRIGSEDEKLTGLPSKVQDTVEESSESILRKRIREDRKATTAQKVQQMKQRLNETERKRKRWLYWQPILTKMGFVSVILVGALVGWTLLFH

Row | Structure (SMILES) | DC50 [1] [nM] | DC50 [2] [nM]
1 | CC(C)n1c(=O)n(C2CCC(=O)NC2=O)c2ccc(C3CCN(C(=O)Nc4cccc(CS(=O)(=O)N5CC[C@H](Nc6cccc(-c7sc(C(=O)O)c(OCC(=O)O)c7Cl)c6)CC5(C)C)c4)CC3(F)F)cc21 (stereo partly drawn) [Example 181, 3-(carboxymethoxy)-4-chloro-5-[3-[[(4S)-1-[[3-[[4-[1-(2,6-dioxo-3-piperidyl)-3-isopropyl-2-oxo-benzimidazol-5-yl]-3,3-difluoro-piperidine-1-carbonyl]amino]phenyl]methylsulfonyl]-2,2-dimethyl-4-piperidyl]amino]phenyl]thiophene-2-carboxylic acid] | < 50 | < 50
2 | CC1(C)C[C@@H](Nc2cccc(-c3sc(C(=O)O)c(OCC(=O)O)c3Cl)c2)CCN1S(=O)(=O)Cc1cccc(NC(=O)C2CCN(C(=O)CNc3cccc4c3C(=O)N(C3CCC(=O)NC3=O)C4=O)CC2)c1 (stereo partly drawn) [Example 32, 3-(carboxymethoxy)-4-chloro-5-[3-[[(4S)-1-[[3-[[1-[2-[[2-(2,6-dioxo-3-piperidyl)-1,3-dioxo-isoindolin-4-yl]amino]acetyl]piperidine-4-carbonyl]amino]phenyl]methylsulfonyl]-2,2-dimethyl-4-piperidyl]amino]phenyl]thiophene-2-carboxylic acid] | 50 to 200 | 200 to 1000
3 | CC1(C)C[C@@H](Nc2cccc(-c3sc(C(=O)O)c(OCC(=O)O)c3Cl)c2)CCN1S(=O)(=O)Cc1cccc(NC(=O)N2CCC(c3ccc4c(c3)n(C3CCOCC3)c(=O)n4C3CCC(=O)NC3=O)CC2)c1 (stereo partly drawn) [Example 159, 3-(carboxymethoxy)-4-chloro-5-(3-(((4S)-1-((3-(4-(1-(2,6-dioxopiperidin-3-yl)-2-oxo-3-(tetrahydro-2H-pyran-4-yl)-2,3-dihydro-1H-benzo[d]imidazol-5-yl)piperidine-1-carboxamido)benzyl)sulfonyl)-2,2-dimethylpiperidin-4-yl)amino)phenyl)thiophene-2-carboxylic acid] | 200 to 1000 | 200 to 1000
4 | Cn1c(=O)n(C2CCC(=O)NC2=O)c2ccc(-c3ccc(NC(=O)Nc4cccc(CS(=O)(=O)N5CC[C@H](Nc6cccc(-c7sc(C(=O)O)c(OCC(=O)O)c7Cl)c6)CC5(C)C)c4)cc3)cc21 (stereo partly drawn) [Example 145, 3-(carboxymethoxy)-4-chloro-5-(3-(((4S)-1-((3-(3-(4-(1-(2,6-dioxopiperidin-3-yl)-3-methyl-2-oxo-2,3-dihydro-1H-benzo[d]imidazol-5-yl)phenyl)ureido)benzyl)sulfonyl)-2,2-dimethylpiperidin-4-yl)amino)phenyl)thiophene-2-carboxylic acid] | 50 to 200 | 50 to 200
5 | CC(C)n1c(=O)n(C2CCC(=O)NC2=O)c2ccc(C3CCN(CC(=O)Nc4cccc(CS(=O)(=O)N5CC[C@H](Nc6cccc(-c7sc(C(=O)O)c(OCC(=O)O)c7Cl)c6)CC5(C)C)c4)CC3)cc21 (stereo partly drawn) [Example 204, 3-(carboxymethoxy)-4-chloro-5-(3-(((4S)-1-((3-(2-(4-(1-(2,6-dioxopiperidin-3-yl)-3-isopropyl-2-oxo-2,3-dihydro-1H-benzo[d]imidazol-5-yl)piperidin-1-yl)acetamido)benzyl)sulfonyl)-2,2-dimethylpiperidin-4-yl)amino)phenyl)thiophene-2-carboxylic acid] | 50 to 200 | 50 to 200
6 | Cn1c(=O)n(C2CCC(=O)NC2=O)c2ccc(C3CN(C(=O)Nc4cccc(CS(=O)(=O)N5CC[C@H](Nc6cccc(-c7sc(C(=O)O)c(OCC(=O)O)c7Cl)c6)CC5(C)C)c4)CCC3F)cc21 (stereo partly drawn) [Example 212, 3-(carboxymethoxy)-4-chloro-5-[3-[[(4S)-1-[[3-[[3-[1-(2,6-dioxo-3-piperidyl)-3-methyl-2-oxo-benzimidazol-5-yl]-4-fluoro-piperidine-1-carbonyl]amino]phenyl]methylsulfonyl]-2,2-dimethyl-4-piperidyl]amino]phenyl]thiophene-2-carboxylic acid] | 200 to 1000 | 50 to 200
7 | O=C(O)COc1c(C(=O)O)sc(-c2cccc(NC3CCN(S(=O)(=O)Cc4cccc(NC(=O)CCn5cc(CNc6cccc7c6CN(C6CCC(=O)NC6=O)C7=O)cn5)c4)CC3)c2)c1Cl (centres unmarked) [Example 38, 3-(carboxymethoxy)-4-chloro-5-[3-[[1-[[3-[3-[4-[[[2-(2,6-dioxo-3-piperidyl)-1-oxo-isoindolin-4-yl]amino]methyl]pyrazol-1-yl]propanoylamino]phenyl]methylsulfonyl]-4-piperidyl]amino]phenyl]thiophene-2-carboxylic acid] | 200 to 1000 | ≥ 1000
8 | Cn1c(=O)n(C2CCC(=O)NC2=O)c2ccc(Nc3cccc(CC(=O)Nc4cccc(CS(=O)(=O)N5CC[C@H](Nc6cccc(-c7sc(C(=O)O)c(OCC(=O)O)c7Cl)c6)CC5(C)C)c4)c3)cc21 (stereo partly drawn) [Example 191, 3-(carboxymethoxy)-4-chloro-5-(3-(((4S)-1-((3-(2-(3-((1-(2,6-dioxopiperidin-3-yl)-3-methyl-2-oxo-2,3-dihydro-1H-benzo[d]imidazol-5-yl)amino)phenyl)acetamido)benzyl)sulfonyl)-2,2-dimethylpiperidin-4-yl)amino)phenyl)thiophene-2-carboxylic acid] | 50 to 200 | 50 to 200
9 | CC1(C)C[C@@H](Nc2cccc(-c3sc(C(=O)O)c(OCC(=O)O)c3Cl)c2)CCN1S(=O)(=O)Cc1cccc(NC(=O)N2CCC(c3ccc4c(c3)c3cccnc3n4C3CCC(=O)NC3=O)CC2)c1 (stereo partly drawn) [Example 195, 3-(carboxymethoxy)-4-chloro-5-[3-[[(4S)-1-[[3-[[4-[9-(2,6-dioxo-3-piperidyl)pyrido[2,3-b]indol-6-yl]piperidine-1-carbonyl]amino]phenyl]methylsulfonyl]-2,2-dimethyl-4-piperidyl]amino]phenyl]thiophene-2-carboxylic acid] | 200 to 1000 | 200 to 1000
10 | CC1(C)C[C@@H](Nc2cccc(-c3sc(C(=O)O)c(OCC(=O)O)c3Cl)c2)CCN1S(=O)(=O)Cc1cccc(NC(=O)CCOCCOCCOCCCc2cccc3c2C(=O)N(C2CCC(=O)NC2=O)C3=O)c1 (stereo partly drawn) [Example 35, 3-(carboxymethoxy)-4-chloro-5-[3-[[(4S)-1-[[3-[3-[2-[2-[3-[2-(2,6-dioxo-3-piperidyl)-1,3-dioxo-isoindolin-4-yl]propoxy]ethoxy]ethoxy]propanoylamino]phenyl]methylsulfonyl]-2,2-dimethyl-4-piperidyl]amino]phenyl]thiophene-2-carboxylic acid] | 200 to 1000 | 200 to 1000
11 | CC1(C)C[C@@H](Nc2cccc(-c3sc(C(=O)O)c(OCC(=O)O)c3Cl)c2)CCN1S(=O)(=O)Cc1cccc(NC(=O)N2CCC(Oc3ccc4c(c3)CN(C3CCC(=O)NC3=O)C4=O)CC2)c1 (some centres unmarked) [Example 76] | 200 to 1000 | ≥ 1000
12 | CC1(C)C[C@@H](Nc2cccc(-c3sc(C(=O)O)c(OCC(=O)O)c3Cl)c2)CCN1S(=O)(=O)Cc1cccc(NC(=O)COC2CN(C(=O)CNc3cccc4c3CN(C3CCC(=O)NC3=O)C4=O)C2)c1 (some centres unmarked) [Example 92] | 50 to 200 | 200 to 1000
13 | Cn1c(=O)n(C2CCC(=O)NC2=O)c2ccc(OC3CCN(C(=O)Nc4cccc(CS(=O)(=O)N5CC[C@H](Nc6cccc(-c7sc(C(=O)O)c(OCC(=O)O)c7Cl)c6)CC5(C)C)c4)CC3)cc21 (some centres unmarked) [Example 118] | 200 to 1000 | 50 to 200
14 | Cn1c(=O)n(C2CCC(=O)NC2=O)c2ccc(C3CN(C(=O)Nc4cccc(CS(=O)(=O)N5CC[C@H](Nc6cccc(-c7sc(C(=O)O)c(OCC(=O)O)c7Cl)c6)CC5(C)C)c4)C3)cc21 (stereo partly drawn) [Example 106, 3-(carboxymethoxy)-4-chloro-5-[3-[[(4S)-1-[[3-[[3-[1-(2,6-dioxo-3-piperidyl)-3-methyl-2-oxo-benzimidazol-5-yl]azetidine-1-carbonyl]amino]phenyl]methylsulfonyl]-2,2-dimethyl-4-piperidyl]amino]phenyl]thiophene-2-carboxylic acid] | 50 to 200 | 50 to 200
15 | O=C(O)COc1c(C(=O)O)sc(-c2cccc(NC3CCN(S(=O)(=O)Cc4cccc(NC(=O)C5CN(C(=O)CNc6cccc7c6CN(C6CCC(=O)NC6=O)C7=O)C5)c4F)CC3)c2)c1Cl (centres unmarked) [Example 75] | < 50 | ≥ 1000
16 | CC1(C)C[C@H](Nc2cccc(-c3sc(C(=O)O)c(OCC(=O)O)c3Cl)c2F)CCN1S(=O)(=O)Cc1ccc(F)c(NC(=O)C2CN(C(=O)CNc3cccc4c3CN(C3CCC(=O)NC3=O)C4=O)C2)c1 (some centres unmarked) [Example 149] | 50 to 200 | ≥ 1000
